{
  "source": "patent EP0427405A1",
  "about": "(priority 1989, dated 1991)",
  "key": {"[1]": {"system": "Phaffia rhodozyma ENZA-M10", "format": "cell-based"}, "[2]": {"system": "Phaffia rhodozyma ENZA-A169", "format": "cell-based"}},
  "data": [
    {"compound": "CSC", "note": "[DMS, dimethylsulphide]", "values": [
      {"measurement": "kill curve, shape", "setting": "[1]", "value": "definite \"bump\""},
      {"measurement": "kill curve, kinetics of death", "setting": "[2]", "value": "follows 1st order kinetics"},
      {"measurement": "kill curve, speed of killing", "setting": "[2]", "value": "killed much more quickly than E1"}
    ]}
  ]
}
